# From PubChem BioAssay AID686957 (The Scripps Research Institute Molecular Screening Center, 2013)
# Active and inactive are the calls of the source. The rule behind the calls is not given here.
# Molecular target: T-cell receptor (TCR)-CD3 interaction, human (TCR alpha chain TRAV4)
# Experiment: potency of TCR-CD3 interaction inhibitors, dose response, biochemical, fluorescence, TAMRA-labeled TCR probe (AID 686957)
# Settings: TCR-CD3 binding
row,SMILES,IC50
1,CC1CCN(S(=O)(=O)c2ccc(NC(=O)Cn3nnc(-c4ccccc4F)n3)cc2)CC1,inactive
2,O=c1c(O)cccc2cc(O)c(O)c(O)c12,4.39 µM
3,COC(=O)Cn1c(=NC(=O)c2cc(-c3cccs3)nc3ccccc23)sc2cc(S(N)(=O)=O)ccc21,> 10.5 µM (inactive)
4,COC(=O)Nc1ccc(S(=O)(=O)NNC(=O)c2c(O)c3ccccc3n(C)c2=O)cc1,> 94.1 µM (inactive)
5,Cc1ccc(C(=O)NNC(=O)c2ccc3ccccc3c2O)cc1,> 94 µM (inactive)
6,Cc1ccc(S(=O)(=O)N2CCC(C(=O)NNC(=O)c3ccccc3O)CC2)cc1,> 94.1 µM (inactive)
7,Cc1ccccc1NC(=O)NNC(=O)c1ccc2ccccc2c1O,> 94.2 µM (inactive)
8,O=c1cc(-c2ccc(O)cc2)oc2cc(O)c(C3OC(CO)C(O)C(O)C3O)c(O)c12 (stereo unspecified),> 94.1 µM (inactive)
9,O=[N+]([O-])c1cc(Br)c(O)c(/C=N/Nc2nnnn2-c2cccc3ccccc23)c1,> 94.1 µM (inactive)
10,O=C(N/N=C/c1c(O)n(Cc2ccco2)c(=O)[nH]c1=O)c1ccccc1,> 94.2 µM (inactive)
11,Cc1ccccc1C(=O)Nc1cccc(C(=O)N/N=C/c2cc(Cl)cc([N+](=O)[O-])c2O)c1,> 94.1 µM (inactive)
12,COc1cccc(OCC(=O)NNC(=O)c2ccc3ccccc3c2O)c1,> 94.1 µM (inactive)
13,O=C(O)c1c[nH]c2c([N+](=O)[O-])cccc2c1=O,> 31.3 µM (inactive)
14,O=[N+]([O-])c1cc(Cl)cc(/C=N/NC(=S)Nc2ccc(S(=O)(=O)N3CCOCC3)cc2)c1O,> 94.1 µM (inactive)
15,O=C(NNC(=O)c1cc2ccccc2cc1O)Nc1ccc(F)cc1F,> 94.1 µM (inactive)
16,COCCNC(=O)Nc1ccc2nc(-c3ccco3)c(-c3ccco3)nc2c1,> 94.1 µM (inactive)
17,O=[N+]([O-])c1ccc(O)c(/C=N/NC(=S)Nc2ccc(Cl)cc2Cl)c1,> 94.1 µM (inactive)
18,O=C(N/N=C/c1ccc(O)c(O)c1)N/N=C/c1ccc(O)c(O)c1,1.03 µM
19,CCc1ccccc1NC(=O)NNC(=O)c1ccc2ccccc2c1O,> 94.1 µM (inactive)
20,Cc1nc2ccccc2c(=O)n1/N=C/c1cc(Br)cc(Br)c1O,> 94.1 µM (inactive)
21,Cc1cccc(C(=O)NCC(=O)NNC(=O)c2ccccc2O)c1,> 94 µM (inactive)
22,COc1ccc(NC(=O)CSc2sc3c(O)cc(=O)[nH]c3c2C#N)c(OC)c1,> 94.1 µM (inactive)
23,CCN(CC(=O)Nc1c(F)cccc1F)C(=O)/C=C/c1ccc2ccccc2n1,> 94.1 µM (inactive)

row,SMILES,IC50
1,COc1ccc(C(=O)NNC(=S)NC(=O)c2cccc([N+](=O)[O-])c2)cc1,> 94.1 µM (inactive)
2,O=C(NNC(=S)NC(=O)c1cccnc1)c1ccc(F)cc1,> 94.1 µM (inactive)
3,CCOC(=O)Cn1c(=NC(=O)c2cc(-c3cccs3)nc3ccccc23)sc2cc(S(N)(=O)=O)ccc21,> 94.1 µM (inactive)
4,CNC(=S)NNC(=O)c1oc2nc(-c3ccccc3)cc(-c3ccco3)c2c1N,> 94.1 µM (inactive)
5,Oc1ccc(/C=N/Nc2ncnc3c2ncn3Cc2ccccc2)cc1O,> 94.1 µM (inactive)
6,C/C(=N/NC(=O)c1cc(O)c(O)c(O)c1)c1ccc([N+](=O)[O-])cc1,> 94.1 µM (inactive)
7,CCOC(=O)c1c(C)[nH]c(C(=O)N/N=C/c2cc([N+](=O)[O-])ccc2O)c1C,> 94.1 µM (inactive)
8,COC(=O)C1CCN(C(=O)c2cc(-c3ccco3)nc3ccccc23)CC1,> 94.1 µM (inactive)
9,CC(C)C(=O)Nc1ccc(C(=O)NNC(=S)NC(=O)c2ccccc2[N+](=O)[O-])cc1,> 94.1 µM (inactive)
10,O=C(N/N=C/c1cc(Br)ccc1O)c1cccc(N2CCCC2=O)c1,> 94.1 µM (inactive)
11,Cc1cc(/C=N/n2c(COc3ccccc3C)nc3ccccc3c2=O)c(O)c([N+](=O)[O-])c1,> 94.1 µM (inactive)
12,COc1ccccc1NC(=O)NNC(=O)c1cc2ccccc2cc1O,> 94.1 µM (inactive)
13,Cc1ccc(O)c(-c2cc(C(=O)Nc3ccc(S(=O)(=O)Nc4nccc(C)n4)cc3)[nH]n2)c1,> 94.1 µM (inactive)
14,CNC(=S)NNC(=O)c1cccn(Cc2ccc(Cl)c(Cl)c2)c1=O,> 94 µM (inactive)
15,COc1ccc(/C=N/NC(=O)c2cc(O)c(O)c(O)c2)cc1Cn1cc([N+](=O)[O-])cn1,3.84 µM
16,O=C(Cc1ccccc1)N/N=C/c1cc(Br)cc(Br)c1O,> 94.1 µM (inactive)
17,C/C(=N\NC(=O)c1nnn(-c2nonc2N)c1-c1ccccc1)c1ccccc1O,> 94.1 µM (inactive)
18,O=C(N/N=C/c1cc(Br)cc(Br)c1O)c1cccc(N2CCCC2=O)c1,> 94.1 µM (inactive)
19,CC1=NN(C(=O)c2ccccc2)C(O)(c2ccc(Br)cc2)C1 (stereo unspecified),> 94.2 µM (inactive)
20,CNC(=S)NNC(=O)c1cccn(Cc2ccccc2)c1=O,> 94.2 µM (inactive)
21,O=C(N/N=C/c1cn(Cc2cccc(F)c2)c2ccccc12)c1cc(O)cc(O)c1,> 94.1 µM (inactive)
22,COc1ccc(C(=O)NC(=S)NNC(=O)c2ccc(O)cc2)cc1[N+](=O)[O-],> 94.1 µM (inactive)
23,COc1ccc(-c2cnnn2-c2ccc(NC(=O)c3ccc(S(=O)(=O)N4CCCCC4)cc3)cc2)cc1OC,inactive
